Reference: article PMC7417534, “Cytochrome P450 inhibition potential and initial genotoxic evaluation of 14-O-[(4,6-diaminopyrimidine-2-yl)thioacetyl] mutilin” (Scientific Reports, 2020)
Like-named read-outs stand apart in the source and are kept apart here.

Legend:
CYP2E1 mRNA = CYP2E1 mRNA expression in Hep G2 cells (real-time PCR); format: cell-based, human
Procedure: (§1) The logarithmic growth phase Hep G2 cells were seeded into 12-well plastic plates at a density of […]. After incubation at 37 °C under 5% CO2 for 24 h, the media were then replaced with 1 mL of serial dilutions of the DPTM (4.98, 0.16 and 0.08 mM) in fresh media. When cells were incubated for 2, 4 and 12 h at 37 °C under 5% CO2, the RNA was isolated using the Trizol reagent according to the manufacturer’s protocol. Total RNA (5 μL) was transcribed into cDNA by using the PrimeScript RT reagent Kit (Perfect Real Time). The obtained cDNA (5 μL) was added for 45 cycles of PCR amplification to detect the mRNA expression (the primers and sequences used herein were given in Table 3) using the ABI Villa TM7Dx real-time PCR system (Gaithersburg, USA). Glyceraldehyde-3-phosphate dehydrogenase (GAPDH) was used as reference gene. All reactions were performed in a final volume of 20 μL (10 μL of 2 × SYBR Green Real-time PCR Master Mix, 2 μL of cDNA and 2 μL of the primers and 6 μL DEPC water) and executed in triplicate.

CYP1A2 [1] = target: T1, CYP1A2 (Rattus norvegicus, UniProt P04799); assay: Cocktail CYP inhibition in rat liver microsomes, CYP1A2 (phenacetin); format: in vitro ADME; conditions: cocktail method, read-out: IC50 values, CYP1A2 in RLMs
T1 construct: containing 100 μL RLMs or HLMs; tissue Research Institute for Liver Diseases (Shanghai) Co., Ltd; host or cells: male SD rat liver microsomes
T1 sequence (P04799 whole entry): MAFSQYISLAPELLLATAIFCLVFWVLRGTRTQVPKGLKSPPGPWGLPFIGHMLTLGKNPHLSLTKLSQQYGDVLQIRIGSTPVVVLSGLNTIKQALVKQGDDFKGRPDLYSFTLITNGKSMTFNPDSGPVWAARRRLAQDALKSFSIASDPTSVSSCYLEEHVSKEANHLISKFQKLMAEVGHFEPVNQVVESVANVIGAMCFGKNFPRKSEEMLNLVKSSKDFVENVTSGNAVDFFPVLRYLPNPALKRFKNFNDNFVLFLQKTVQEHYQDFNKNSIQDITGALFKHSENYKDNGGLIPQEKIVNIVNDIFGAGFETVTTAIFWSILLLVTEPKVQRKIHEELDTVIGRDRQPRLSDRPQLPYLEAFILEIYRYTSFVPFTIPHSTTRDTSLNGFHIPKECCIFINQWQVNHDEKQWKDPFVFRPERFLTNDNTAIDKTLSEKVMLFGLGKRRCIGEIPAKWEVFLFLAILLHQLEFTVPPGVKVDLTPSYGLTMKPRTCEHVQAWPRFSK
Procedure: (§2) We used the cocktail method to study the inhibition activities of DPTM against CYP enzymes in RLMs and HLMs with slight modification. DPTM (250 μmol) was dissolved in 1.25 mL methanol to a solution and then diluted with methanol and water to 2, 10, 20, 100, 200, 400, 1,000 and 2000 μM, respectively. The obtained serial dilutions (10 μL) were added to the incubation mixtures (200 μL total volume), containing 100 μL RLMs or HLMs (final concentration was 5 μg/μL, respectively), 10 μL glucose-6-phosphate (final concentration was 1 mM), 10 μL glucose-6-phosphate dehydrogenase (final concentration was 0.1 U/L), 20 μL potassium phosphate buffer (final concentration was 0.01 M) and 20 μL MgCl2 (final concentration was 2 mM), to give the final concentrations were 0.1, 0.5, 1, 5 10, 20, 50, and 100 μM, respectively. For the groups that in the absence of DPTM, 10 μL methanol (1%) replaced the DPTM and was added to the incubation mixtures. […] The final concentration of methanol in all the incubation mixtures, including the blank group, was […]. […] The determined metabolic substrates were used for calculating the relative enzyme activity (Erel) by the following formula: Erel (%) = Ci(n)/Ci(0) × 100%, in which Ci(n) was the determined metabolic substrates in the presence of varying concentrations of DPTM and Ci(0) was the determined metabolic substrates in the absence of DPTM. […]

CYP2C11 = target: T2, CYP2C11 (Rattus norvegicus, UniProt P08683); assay: Cocktail CYP inhibition in rat liver microsomes, CYP2C11 (tolbutamide); format: in vitro ADME; conditions: cocktail method, read-out: IC50 values, CYP2C11 in RLMs
T2 construct: containing 100 μL RLMs or HLMs; tissue Research Institute for Liver Diseases (Shanghai) Co., Ltd; host or cells: male SD rat liver microsomes
T2 sequence (P08683 whole entry): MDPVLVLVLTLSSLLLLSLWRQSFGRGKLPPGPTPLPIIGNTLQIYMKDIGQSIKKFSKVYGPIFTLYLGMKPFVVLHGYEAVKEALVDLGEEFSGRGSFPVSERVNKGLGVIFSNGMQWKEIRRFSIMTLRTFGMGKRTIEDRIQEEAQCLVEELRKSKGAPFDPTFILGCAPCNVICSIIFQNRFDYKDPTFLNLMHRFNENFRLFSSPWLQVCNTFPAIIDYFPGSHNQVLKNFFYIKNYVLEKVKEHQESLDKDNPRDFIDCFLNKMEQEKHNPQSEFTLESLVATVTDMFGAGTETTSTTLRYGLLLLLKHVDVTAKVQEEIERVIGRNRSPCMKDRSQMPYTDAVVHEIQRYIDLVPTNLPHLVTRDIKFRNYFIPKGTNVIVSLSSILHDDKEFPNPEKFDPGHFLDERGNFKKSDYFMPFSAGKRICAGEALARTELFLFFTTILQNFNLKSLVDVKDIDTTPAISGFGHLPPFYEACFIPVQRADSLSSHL
Procedure: as §2

PXR mRNA = PXR mRNA expression in Hep G2 cells (real-time PCR); format: cell-based, human; conditions: 4 and 12 h, three doses
Procedure: as §1

CYP2C9 = target: T3, CYP2C9 (Homo sapiens, UniProt P11712); assay: Cocktail CYP inhibition in human liver microsomes, CYP2C9 (tolbutamide); format: in vitro ADME; conditions: cocktail method, read-out: IC50 values, CYP2C9 in HLMs
T3 construct: containing 100 μL RLMs or HLMs; tissue Research Institute for Liver Diseases (Shanghai) Co., Ltd; host or cells: pooled human liver microsomes
T3 sequence (P11712 whole entry): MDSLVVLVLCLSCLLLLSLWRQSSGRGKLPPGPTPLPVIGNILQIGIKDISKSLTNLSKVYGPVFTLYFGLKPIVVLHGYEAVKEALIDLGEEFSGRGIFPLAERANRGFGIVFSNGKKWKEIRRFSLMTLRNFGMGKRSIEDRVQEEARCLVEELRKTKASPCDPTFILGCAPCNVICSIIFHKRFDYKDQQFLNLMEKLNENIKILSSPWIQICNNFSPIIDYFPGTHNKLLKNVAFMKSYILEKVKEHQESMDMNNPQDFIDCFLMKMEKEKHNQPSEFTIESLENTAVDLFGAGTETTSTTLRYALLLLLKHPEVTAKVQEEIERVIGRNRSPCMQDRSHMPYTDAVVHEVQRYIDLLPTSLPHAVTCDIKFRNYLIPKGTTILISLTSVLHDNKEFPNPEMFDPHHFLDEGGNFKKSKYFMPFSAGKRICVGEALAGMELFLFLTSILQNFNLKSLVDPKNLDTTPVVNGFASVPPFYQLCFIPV
Procedure: as §2

AhR mRNA = AhR mRNA expression in Hep G2 cells (real-time PCR); format: cell-based, human
Procedure: as §1

CYP2E1 = target: T4, CYP2E1 (Homo sapiens, UniProt P05181); assay: Cocktail CYP inhibition in human liver microsomes, CYP2E1 (chlorzoxazone); format: in vitro ADME; conditions: cocktail method, read-out: IC50 values, CYP2E1 in HLMs
T4 construct: containing 100 μL RLMs or HLMs; tissue Research Institute for Liver Diseases (Shanghai) Co., Ltd; host or cells: pooled human liver microsomes
T4 sequence (P05181 whole entry): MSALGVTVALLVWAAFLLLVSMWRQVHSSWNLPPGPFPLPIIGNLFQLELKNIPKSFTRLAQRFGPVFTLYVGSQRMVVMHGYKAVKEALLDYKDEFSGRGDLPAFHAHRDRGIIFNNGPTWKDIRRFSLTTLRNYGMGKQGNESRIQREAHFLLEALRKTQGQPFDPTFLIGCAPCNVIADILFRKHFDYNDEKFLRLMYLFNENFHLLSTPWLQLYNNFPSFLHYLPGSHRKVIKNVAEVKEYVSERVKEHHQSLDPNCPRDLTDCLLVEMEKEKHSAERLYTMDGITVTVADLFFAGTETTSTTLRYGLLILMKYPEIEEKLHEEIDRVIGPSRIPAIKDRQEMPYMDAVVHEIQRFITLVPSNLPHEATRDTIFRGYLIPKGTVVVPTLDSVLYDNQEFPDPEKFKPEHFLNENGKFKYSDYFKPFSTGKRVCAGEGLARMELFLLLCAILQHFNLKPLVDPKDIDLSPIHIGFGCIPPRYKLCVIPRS
Procedure: as §2

PPARα mRNA = PPARα mRNA expression in Hep G2 cells (real-time PCR); format: cell-based, human; conditions: 2, 4 and 12 h, three doses
Procedure: as §1

S. typhimurium TA100 = conditions: − S9
From the text: (§3) S. typhimurium strains TA97, TA98, TA100, TA102 and TA1535 were stored and maintained as provided in the standard protocol. Each of the strains was checked for their genetic integrity prior to the experiment, and tested for biotin dependence, histidine dependence, biotin and histidine dependence, rfa marker (crystal violet) and presence of the plasmid pKM101 (ampicillin resistance) or pAQ1 (tetracycline resistance). Different strains were used to identify different types of mutations.
(§4) The test was carried out at five different concentrations of DPTM. […] Then 1 mL solution was diluted with distilled water by two fold. […] The negative control used in this experiment was 1 mL DMSO which was directly incorporated into 9 mL melted top agar.
(§5) The Ames test of DPTM was conducted as described in the literatures[42],[43] with some modifications. Briefly, 1 mL of strain was inoculated into 5 mL of nutrient broth, followed by incubating overnight at 37 °C. The mixture comprised respective strains, drug, negative and positive controls with the S9 for testing in the presence of metabolic activation system. For testing without S9, 1 × phosphate buffer saline (PBS, pH 7.4) replaced the S9 mix. The obtained mixtures were added into the tube, mixed well and incubated at 37 °C for 20 min. Then, the top agar was melted and 2 mL of this melted top agar was added to each tube and gently mixed. […] The results were expressed as the number of revertant colonies per plate. The experiments were performed in triplicate.

S. typhimurium TA1535 = conditions: − S9
From the text: as §3, §4, §5

CYP1A2 [2] = target: T5, CYP1A2 (Homo sapiens, UniProt P05177); assay: Cocktail CYP inhibition in human liver microsomes, CYP1A2 (phenacetin); format: in vitro ADME; conditions: cocktail method, read-out: IC50 values, CYP1A2 in HLMs
T5 construct: containing 100 μL RLMs or HLMs; tissue Research Institute for Liver Diseases (Shanghai) Co., Ltd; host or cells: pooled human liver microsomes
T5 sequence (P05177 whole entry): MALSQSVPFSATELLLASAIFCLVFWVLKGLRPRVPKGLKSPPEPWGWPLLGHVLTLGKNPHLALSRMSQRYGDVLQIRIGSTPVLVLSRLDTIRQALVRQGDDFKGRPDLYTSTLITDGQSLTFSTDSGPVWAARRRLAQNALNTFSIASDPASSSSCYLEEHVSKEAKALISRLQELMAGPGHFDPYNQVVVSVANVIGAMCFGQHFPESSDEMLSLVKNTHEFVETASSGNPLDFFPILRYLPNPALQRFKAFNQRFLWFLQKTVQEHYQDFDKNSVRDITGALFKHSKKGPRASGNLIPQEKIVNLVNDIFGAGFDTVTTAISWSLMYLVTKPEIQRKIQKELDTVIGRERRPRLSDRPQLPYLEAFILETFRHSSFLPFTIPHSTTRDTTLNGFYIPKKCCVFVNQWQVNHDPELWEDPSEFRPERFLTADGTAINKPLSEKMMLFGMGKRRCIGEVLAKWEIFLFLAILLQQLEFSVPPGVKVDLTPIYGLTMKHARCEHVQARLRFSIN
Procedure: as §2

## C=CC1(C)CC(OC(=O)CSc2nc(N)cc(N)n2)C2(C)C(C)CCC3(CCC(=O)C32)C(C)C1O (stereo not drawn) [DPTM, 14-O-[(4,6-Diaminopyrimidine-2-yl)thioacetyl] mutilin]
CYP2E1 mRNA; 4 h, three doses
  CYP2E1 mRNA level versus control: no significantly difference
CYP2E1 mRNA; 12 h
  CYP2E1 mRNA expression versus control: significantly lowered
CYP1A2 [1]
  IC50: > 100 µM
CYP2C11
  IC50: > 100 µM
PXR mRNA
  PXR mRNA expression versus control: significantly increased
CYP2C9
  IC50: > 100 µM
AhR mRNA; 2 and 4 h, 4.98, 0.16 and 0.08 mM
  AhR mRNA content versus control: significantly increased
AhR mRNA; 12 h
  AhR mRNA content versus control: no effect
CYP2E1
  IC50: 67 ± 6 µM
PPARα mRNA
  PPARα mRNA expression versus control: significantly increase
S. typhimurium TA100; dose 0.25 μmol/plate
  revertant colonies per plate, TA100: 171 ± 15 CFU
S. typhimurium TA100; dose 0.50 μmol/plate
  revertant colonies per plate, TA100: 162 ± 13 CFU
S. typhimurium TA100; dose 1.00 μmol/plate
  revertant colonies per plate, TA100: 165 ± 14 CFU
S. typhimurium TA100; dose 1.99 μmol/plate
  revertant colonies per plate, TA100: 170 ± 12 CFU
S. typhimurium TA100; dose 3.98 μmol/plate
  revertant colonies per plate, TA100: 173 ± 15 CFU
S. typhimurium TA1535; dose 0.25 μmol/plate
  revertant colonies per plate, TA1535: 22 ± 3 CFU
S. typhimurium TA1535; dose 0.50 μmol/plate
  revertant colonies per plate, TA1535: 21 ± 5 CFU
S. typhimurium TA1535; dose 1.00 μmol/plate
  revertant colonies per plate, TA1535: 26 ± 1 CFU
S. typhimurium TA1535; dose 1.99 μmol/plate
  revertant colonies per plate, TA1535: 22 ± 3 CFU
S. typhimurium TA1535; dose 3.98 μmol/plate
  revertant colonies per plate, TA1535: 22 ± 4 CFU
CYP1A2 [2]
  IC50: > 100 µM
